For this data set the following is noted: for aqueous solubility: pH 6.8.

Structures are written as SMILES. ≈ marks a conversion by molar mass, not a printed value.

As for `CCCS(=O)(=O)c1nc(NC2CC2)cc(-c2ccc3c(ccn3C3CC(C)(C)NC(C)(C)C3)c2)n1`, the MDR1-MDCK efflux ratio was found to be 34.9; the intrinsic clearance, human liver microsomes amounted to 51.1 mL/min/kg; the intrinsic clearance, rat liver microsomes was determined as 123 mL/min/kg.
As to `Cc1cnn(CC(=O)NCCCn2cc(Cl)cn2)c1`, the MDR1-MDCK efflux ratio was 2.34; the intrinsic clearance, human liver microsomes is at most 4.74 mL/min/kg; the intrinsic clearance, rat liver microsomes was determined as 47.2 mL/min/kg.
Broadly, the aqueous solubility is how much of the substance goes into solution per volume. Low values mean little dissolved substance, high ones much dissolved substance. For `N#CCN(C(=O)c1cn(-c2ccc(Br)cc2)cn1)C1CC1`, the MDR1-MDCK efflux ratio came out at 1.04; the intrinsic clearance, human liver microsomes is at most 4.74 mL/min/kg; the intrinsic clearance, rat liver microsomes is 57.3 mL/min/kg; the aqueous solubility was found to be 65.3 µg/mL (≈ 189 µM).
Regarding `O=C(/C=C/N1C[C@H]2C[C@@H]1CN2c1ccccn1)c1ccccc1O`, the MDR1-MDCK efflux ratio was found to be 0.976 and the aqueous solubility was 42 µg/mL (≈ 131 µM).
In turn, `CCCCCCCCc1ccc2c(c1)CC[C@@H](C(N)(CO)CO)C2` returned an aqueous solubility of 0.81 µg/mL (≈ 2.43 µM).
As for `COc1ccc2c(c1)CN(C(=O)c1cc(C3CC3)[nH]n1)CC2`, the MDR1-MDCK efflux ratio was 1.06; the intrinsic clearance, human liver microsomes worked out at 63.1 mL/min/kg; the intrinsic clearance, rat liver microsomes was 2860 mL/min/kg; the aqueous solubility was determined as 13.6 µg/mL (≈ 45.9 µM).
`O=C(O)C1CN(Cc2ccc(OCc3ccc(Cl)c(Cl)c3)cc2)C1`: the MDR1-MDCK efflux ratio was 4.1; the intrinsic clearance, human liver microsomes was at most 4.74 mL/min/kg; the intrinsic clearance, rat liver microsomes is at most 10.7 mL/min/kg.
For `c1ccc(OCc2cc(CC3(NCc4cnc5ccccc5c4)COC3)no2)cc1`, the MDR1-MDCK efflux ratio was found to be 1.29; the intrinsic clearance, human liver microsomes came out at 153 mL/min/kg; the intrinsic clearance, rat liver microsomes amounted to 1270 mL/min/kg; the aqueous solubility was found to be 13.1 µg/mL (≈ 32.6 µM).
For `Cc1nc2ncccn2c1C(=O)N(CC#Cc1ccccc1)C1CCCC1` the same measures were 1.94, 63.7 mL/min/kg, 4650 mL/min/kg and 42.9 µg/mL (≈ 120 µM).
In the case of `O=C(Nc1cccc2ncccc12)[C@H]1CCCN(S(=O)(=O)c2ccccc2)C1`, the MDR1-MDCK efflux ratio was determined as 13; the fraction unbound, human plasma is 0.167; the fraction unbound, rat plasma is 0.123; the intrinsic clearance, human liver microsomes worked out at 37.9 mL/min/kg. Also, the intrinsic clearance, rat liver microsomes stood at 545 mL/min/kg.
Turning to `CC(=O)N1CCc2cc(Nc3nccc(C(F)(F)F)n3)ccc21`, the intrinsic clearance, human liver microsomes was determined as 130 mL/min/kg; the intrinsic clearance, rat liver microsomes came to 271 mL/min/kg; the aqueous solubility amounted to 1.2 µg/mL (≈ 3.72 µM).
As to `CC(=O)N1CCN(C(=O)c2ccc(-c3ccc(F)cc3)cc2F)CC1`, the MDR1-MDCK efflux ratio was found to be 1.47; the intrinsic clearance, human liver microsomes is at most 4.74 mL/min/kg; the intrinsic clearance, rat liver microsomes is 20 mL/min/kg; the aqueous solubility turned out to be 74.5 µg/mL (≈ 216 µM).
`CNCc1cc(N(C)C)nc(C2CCCN2C(=O)COC)n1` (centres undefined): the MDR1-MDCK efflux ratio was determined as 5.05; the intrinsic clearance, human liver microsomes is at most 4.74 mL/min/kg; the intrinsic clearance, rat liver microsomes is at most 10.7 mL/min/kg.
As to `COCC(C)(C)C(=O)N1CCCC2(CCNCC2)CC1`, the MDR1-MDCK efflux ratio stood at 4.31; the intrinsic clearance, human liver microsomes is at most 4.74 mL/min/kg; the intrinsic clearance, rat liver microsomes was at most 10.7 mL/min/kg.
For the molecule `CC(C)Oc1ccc(C2(C(=O)NC3CCS(=O)(=O)CC3)CCCC2)cc1`, the MDR1-MDCK efflux ratio stood at 37.9; the intrinsic clearance, human liver microsomes was 15.7 mL/min/kg; the intrinsic clearance, rat liver microsomes was 210 mL/min/kg.
`O=C1N=C(N2CCCCN2)S/C1=C\c1ccc(F)cc1O`: the MDR1-MDCK efflux ratio was 1.69 and the aqueous solubility was 0.9 µg/mL (≈ 2.93 µM).
`Cc1ccnc(-n2nccc2NC(=O)N2CCCN(C)CC2)c1`: the MDR1-MDCK efflux ratio amounted to 2.95; the intrinsic clearance, human liver microsomes is 13.2 mL/min/kg; the intrinsic clearance, rat liver microsomes stood at 169 mL/min/kg; the aqueous solubility is 31.7 µg/mL (≈ 101 µM).
For `O=C(NCCc1cnn(-c2ccccc2)c1)N1CCC1` the same measures were 1.34, at most 4.74 mL/min/kg, 54.8 mL/min/kg and 39.6 µg/mL (≈ 146 µM).
Consider `CCN(c1ccccc1)S(=O)(=O)c1ccc(C(=O)Nc2ccccc2C(C)=O)cc1`, for which the MDR1-MDCK efflux ratio was found to be 1.18 and the aqueous solubility is 0.45 µg/mL (≈ 1.07 µM).
Take `CC(C)N(CCCNC(=O)Nc1ccc(C(C)(C)C)cc1)C[C@@H]1O[C@@H](n2cc(Br)c3c(N)ncnc32)[C@H](O)[C@H]1O`: the MDR1-MDCK efflux ratio is 17; the intrinsic clearance, human liver microsomes was determined as 354 mL/min/kg; the intrinsic clearance, rat liver microsomes is 2010 mL/min/kg.
Regarding `Cc1ccc(C#N)c(NCc2ccccc2-n2ccnc2)n1`, the MDR1-MDCK efflux ratio is 1.76; the intrinsic clearance, human liver microsomes worked out at 45.7 mL/min/kg; the intrinsic clearance, rat liver microsomes worked out at 621 mL/min/kg.
As to `O=C(NCCc1ccc(O)c(O)c1)Nc1ccccn1`, the intrinsic clearance, human liver microsomes was at most 4.74 mL/min/kg; the intrinsic clearance, rat liver microsomes worked out at 149 mL/min/kg; the aqueous solubility came to 47.5 µg/mL (≈ 174 µM).
On to `O=C(c1cc(-c2ccccc2)[nH]n1)N1CCc2ccccc21`, for which the aqueous solubility was found to be 0.84 µg/mL (≈ 2.9 µM).
Consider `N#Cc1nncn1CC(=O)Nc1ccc2ccccc2c1`, for which the aqueous solubility was 22.8 µg/mL (≈ 82.1 µM). This aqueous solubility lies about 27-fold higher than the previous one.
Consider `CCc1ccc(NC(=O)C2CCN(c3ccc4nncn4n3)CC2)cc1`, for which the MDR1-MDCK efflux ratio worked out at 13.6; the intrinsic clearance, human liver microsomes came to 4.86 mL/min/kg; the intrinsic clearance, rat liver microsomes was found to be 34.6 mL/min/kg; the aqueous solubility came to 1.15 µg/mL (≈ 3.28 µM).
`O=C(Nc1ccccn1)c1cccc2ccccc12` displayed an intrinsic clearance, human liver microsomes of 131 mL/min/kg; an intrinsic clearance, rat liver microsomes of 140 mL/min/kg; an aqueous solubility of 35.3 µg/mL (≈ 142 µM).
In the case of `Cc1cc(N2CCCC2c2cc(CCC(=O)O)cc(C)n2)ncn1` (centres undefined), the fraction unbound, human plasma turned out to be 1; the fraction unbound, rat plasma is 1; the intrinsic clearance, human liver microsomes is at most 4.74 mL/min/kg; the intrinsic clearance, rat liver microsomes is at most 10.7 mL/min/kg.
Take `CCC(=O)N(C)c1ccccc1C(=O)O`: the MDR1-MDCK efflux ratio is 1.28; the intrinsic clearance, human liver microsomes was determined as 23.7 mL/min/kg; the intrinsic clearance, rat liver microsomes turned out to be 1130 mL/min/kg; the aqueous solubility is 36.4 µg/mL (≈ 176 µM).
In the case of `Cc1cc(C)cc(C(=O)Nc2nn(C(C)(C)C)cc2C#N)c1`, the MDR1-MDCK efflux ratio is 2.1; the intrinsic clearance, human liver microsomes worked out at 11.2 mL/min/kg; the intrinsic clearance, rat liver microsomes is 270 mL/min/kg; the aqueous solubility is 38.6 µg/mL (≈ 130 µM).
The like results for `N#Cc1ccccc1Cn1nnc(-c2ccccc2)n1` were, in that order, 0.448, 10.7 mL/min/kg, 211 mL/min/kg and 11.4 µg/mL (≈ 43.8 µM).
As for `CCc1nnc(Nc2cc(C)nc(C3CN(C(=O)C(C)C)CCO3)c2)s1` (centres undefined), the MDR1-MDCK efflux ratio came to 40.4; the intrinsic clearance, human liver microsomes stood at 13.7 mL/min/kg; the intrinsic clearance, rat liver microsomes turned out to be 131 mL/min/kg.
On to `O=c1n(CCc2ccncc2)nnn1-c1ccccc1`, for which the MDR1-MDCK efflux ratio stood at 0.571; the intrinsic clearance, human liver microsomes was 5.8 mL/min/kg; the intrinsic clearance, rat liver microsomes turned out to be 65.2 mL/min/kg; the aqueous solubility was determined as 23.1 µg/mL (≈ 86.3 µM).
The like results for `Cc1ccc(C)c(S(=O)(=O)N2CCCN(C3CCC3)CC2)c1` were, in that order, 0.605, 214 mL/min/kg, 2150 mL/min/kg and 57.9 µg/mL (≈ 179 µM).
For `CCOc1ccccc1C(=O)N1CCC(c2nc(-c3ccc(OC)cc3)c(C(N)=O)[nH]2)CC1` the same measures were 47.7, 104 mL/min/kg, 237 mL/min/kg and 46.4 µg/mL (≈ 103 µM).
With `CC(C)(O)Cn1nc(-c2ccccc2)c2c(Cl)c(-c3ccccc3)nnc21`, the MDR1-MDCK efflux ratio stood at 0.725; the intrinsic clearance, human liver microsomes is at most 4.74 mL/min/kg; the intrinsic clearance, rat liver microsomes turned out to be 85.5 mL/min/kg.
For `COc1cc(OC)cc(C(=O)NCc2noc(-c3ccccc3)n2)c1` the same measures were 0.335, 34.9 mL/min/kg and 628 mL/min/kg.
Regarding `COc1cccc(OC)c1-c1cc(C(=O)N[C@@H](CC(C)C)C(=O)O)nn1-c1ccnc2cc(Cl)ccc12`, the MDR1-MDCK efflux ratio is 39.1; the intrinsic clearance, human liver microsomes was 9.49 mL/min/kg; the intrinsic clearance, rat liver microsomes stood at 108 mL/min/kg; the aqueous solubility is 90.4 µg/mL (≈ 173 µM).
In the case of `NCCCc1nc(-c2ccncc2)cs1`, the intrinsic clearance, human liver microsomes came to 29.3 mL/min/kg and the intrinsic clearance, rat liver microsomes amounted to 239 mL/min/kg.
`Cc1noc(CCNc2cccc(F)c2C#N)n1` came in with an intrinsic clearance, human liver microsomes of 40.7 mL/min/kg and an intrinsic clearance, rat liver microsomes of 266 mL/min/kg.
With `CC(C)CC(=O)Nc1ccc(Cl)c(C#N)c1`, the aqueous solubility stood at 24.1 µg/mL (≈ 102 µM).
On to `CSc1nnc(CCCNc2cc(C)ccn2)n1C1CCCC1`, for which the MDR1-MDCK efflux ratio worked out at 18.2; the intrinsic clearance, human liver microsomes came out at 138 mL/min/kg; the intrinsic clearance, rat liver microsomes came to 3220 mL/min/kg.
For `Cc1cc(C)c(NC(=O)CN(C)c2ccc(C#N)nc2)c(C)c1` the same measures were 6.69, 14.4 mL/min/kg and 75.7 mL/min/kg.
`COc1ccc(C(=O)Nc2cc(-c3ccc(F)c(F)c3)no2)cc1`: the MDR1-MDCK efflux ratio stood at 0.43 and the aqueous solubility came to 0.35 µg/mL (≈ 1.06 µM).
As for `CC1CCC(O)(CSc2nncn2C(C)C)CC1` (centres undefined), the MDR1-MDCK efflux ratio was determined as 0.85; the intrinsic clearance, human liver microsomes was found to be 6.42 mL/min/kg; the intrinsic clearance, rat liver microsomes amounted to 214 mL/min/kg.
`CCn1c(=O)c2c(nc3n2CCN3c2cc(C)cc(C)c2)n(C)c1=O` yielded an aqueous solubility of 0.5 µg/mL (≈ 1.47 µM).
In the case of `N#C/C(=C\c1cnn(Cc2ccccc2)c1)c1nc2cc(Cl)ccc2c(=O)[nH]1`, the MDR1-MDCK efflux ratio turned out to be 1.17 and the aqueous solubility is 0.17 µg/mL (≈ 0.438 µM).
Turning to `Cc1ncsc1-c1cncc(CC2CCCN(C)C2)n1` (centres undefined), the MDR1-MDCK efflux ratio worked out at 0.97; the intrinsic clearance, human liver microsomes is 32 mL/min/kg; the intrinsic clearance, rat liver microsomes came to 108 mL/min/kg.
For `Cc1cccc(C)c1OCC(=O)N(C)[C@@H]1CCC[C@@H](O)[C@@H]1O` the same measures were 11.2, 9.69 mL/min/kg and 155 mL/min/kg.
`Cc1nc(N2CCc3c(ncn3C)C2)c2c(C)c(C)sc2n1`: the MDR1-MDCK efflux ratio was 1.94; the intrinsic clearance, human liver microsomes came to 94.2 mL/min/kg; the intrinsic clearance, rat liver microsomes worked out at 655 mL/min/kg; the aqueous solubility turned out to be 47.5 µg/mL (≈ 152 µM).

The values are drawn from the Biogen ADME set (Fang et al. 2023).
